According to patent US12226410B2, “Methods for enhancing cellular clearance of pathological molecules via activation of the cellular protein ykt6” (NORTHWESTERN UNIVERSITY, priority 2019, dated 2025):

Assays:
[1] = system: lysosomal GCase; test: Live cell GCase activity assay in A53T iPSn; format: cell-based, human
Protocol: FIGS. 6A, 6B, 6C, 6D, 6E, 6F, and 6G. FTIs enhance lysosomal GCase activity and reduce pathological a-syn by blocking ykt6 farnesylation. 6A) GCase activity in FTI-treated A53T iPSn at d80 (LNK-754 5 nM, 5d). 6B) GCase activity in FTI-treated A53T iPSn expressing empty vector (vect) or ykt6-CS (n=4). 6C) Lysosomal GCase activity was assessed in FTI-treated SHSY5Y cells transfected with scrambled or ykt6 shRNA (KD) (n=3). 6D) Quantification of Triton X-100 soluble (T-sol) a-syn by western blot from FTI-treated A53T iPSn (5 nM, 7d). *, non-specific band. (n=3). 6E) Quantification of insoluble a-syn from A53T iPSn as in D (n=3). 6F) Insoluble a-syn in FTI-treated H4 cells (5 nM, 5 days) transfected with either scrambled or ykt6 shRNA (n=6). 6G) Neuron viability was assessed in FTI-treated A53T iPSn (5 nM, 14d from d86-d100) by quantification of neurofilament protein. Right, neuron viability in FTI-treated A53T iPSn expressing empty vector or ykt6-CS (n=4). Values are the mean+/−SEM, *p<0.05, **p<0.01, ***p<0.001.
Live cell GCase activity assay. […] Fluorescent signal was quantified over time and normalized to total cell volume using CellTag 700 (Licor) or lysosomal mass by using cascade dextran blue (#D-1976, Thermofisher). […]
Treatment of cultures with farnesyltransferase inhibitors. […] Cultures were harvested and analyzed as described in the above sections.

[2] = system: GCase; test: FTI treatment of DASYN53 mice: GCase maturation and activity in midbrain; format: in vivo; details: i.p. 0.9 mg/kg, 26d
Protocol: FIGS. 7A, 7B, 7C, 7D, and 7E. FTI treatment restores functional membrane-associated ykt6 complexes in DASYN53 mice. 7A) Immunohistochemistry in the midbrain of mice showing ykt6, tyrosine hydroxylase (TH), NeuN, and nuclei (DAPI). Scale bar, 50 μm. 7B) Ykt6 membrane shift analysis in olfactory bulbs of FTI (LNK-754)-injected DASYN53 mice (12-14 months, i.p. 26d, 0.9 mg/kg) (n=5, non-transgenic (nTg)+veh; n=4, DASYN53+veh; n=4 DASYN53+FTI). GAPDH and sec22b are loading controls. 7C) SEC/western blot analysis of midbrains of FTI-treated DASYN53 mice. Inputs are shown on the left. NSE is a loading control. […] (n=3, nTg+veh; n=4, DASYN53+veh; n=4 DASYN53+FTI). 7D) Quantification of complexes from SEC in 7C. 7E) GCase maturation was assessed in midbrain lysates by endo H resistance (n=4, nTg+veh; n=4, DASYN53+veh; n=4 DASYN53+FTI). For all quantifications, each point represents a measurement from an individual animal. […]
FIGS. 8A, 8B, 8C, 8D, 8E, and 8F. […] 8B & 8C) Quantification of soluble and insoluble a-syn from midbrains of FTI-treated DASYN53 mice normalized to total protein (CBB). […] 8D) Midbrain TH levels were quantified by western blot of FTI-treated DASYN53 mice (n=3). […]
Analysis of post-ER GCase. […] Endo H resistant bands migrating at 62-64 kDa were measured as post-ER forms of GCase, and normalized to GAPDH levels. […]

enhancement of GCase activity in midbrain [2]: ca. 40%
Structure (SMILES): C#Cc1cccc(-c2cc(=O)n(C)c3ccc([C@](O)(c4ccc(Cl)cc4)c4cncn4C)cc23)c1 [LNK-754]
lysosomal GCase activity ([1]; 1 nM): partially rescued
lysosomal GCase activity ([1]; 4 and 10 nM): near-complete rescue
GCase trafficking (mature, endo H resistant forms) ([2]; midbrain lysates): enhanced GCase trafficking
